Patent US20230339939A1 (Bayer Aktiengesellschaft, priority 2020, published 2023)

Key:
CSNK1D = CSNK1D (Homo sapiens (Human), UniProt P48730); assay: CSNK1D Assay (ADP-Glo, 1 μM ATP); format: biochemical; details: median, read-out: CSNK1D IC50 [mol/l] (median)
Method: CSNK1D-inhibitory activity of compounds of the present invention in presence of 1 μM adenosine-tri-phosphate (ATP) was quantified employing the CSNK1 D assay as described in the following paragraphs. In essence, the enzyme activity is measured by quantification of the adenosine-di-phosphate (ADP), which is generated as a co-product of the enzyme reaction, via the “ADP-Glo™ Kinase Assay” kit from the company Promega. This detection system works as follows: In a first step the ATP not consumed in the kinase reaction is quantitatively converted to cAMP employing an adenylate cyclase (“ADP-Glo-reagent”), then the adenylate cyclase is stopped and the ADP generated in the kinase reaction converted to ATP which generates in a luciferase-based reaction a glow-luminescence signal (“Kinase Detection Reagent”).
Recombinant fusion protein of N-terminal Glutathion-S-Transferase (GST) and full-length human CSNK1D, expressed by baculovirus infected insect cells and purified via Glutathion affinity chromatography, was purchased from Life Technologies (product no. PV3665) and used as enzyme. As substrate for the kinase reaction the biotinylated peptide Btn-Ahx-[…] (C-terminus in amide form) was used which can be purchased e.g. from the company Biosyntan (Berlin-Buch, Germany).
For the assay 50 nl of a 100 fold concentrated solution of the test compound in DMSO was pipetted into a white 1536-well microtiter plate (Greiner Bio-One, Frickenhausen, Germany), 2 μL of a solution of CSNK1D in aqueous assay buffer [50 mM HEPES pH 7.5, 10% (v/v) glycerol, 10 mM MgCl2, 50 mM NaCl, 1 mM dithiothreitol, 0.01% (w/v) bovine serum albumin, 0.01% (v/v) Triton X-100] were added and the mixture was incubated for 15 min at 22° C. to allow pre-binding of the test compounds to the enzyme before the start of the kinase reaction. […] The concentration of CSNK1D was adjusted depending of the activity of the enzyme lot and was chosen appropriate to have the assay in the linear range, a typical concentration is about 0.5 ng/μL. The reaction was stopped by the addition of 2.5 μL of “ADP-Glo-reagent” (1:1.5 fold diluted with water) and the resulting mixture was incubated at 22° C. for 1 h to convert the ATP not consumed in the kinase reaction completely […]. Subsequently 2.5 μL of the “kinase detection reagent” (1.2 fold more concentrated than recommended by the producer) were added, the resulting mixture was incubated at 22° C. for 1 h and then the luminescence measured with a suitable measurement instrument (e.g. Viewlux™ from Perkin-Elmer). The amount of emitted light was taken as a measure for the amount of ADP generated and thereby for the activity of the CSNK1D.

CSNK1A1 = CSNK1A1 (Homo sapiens (Human), UniProt P48729); assay: CSNK1A1 High ATP Assay (ADP-Glo, 1 mM ATP); format: biochemical; details: median, read-out: CSNK1A1 high ATP assay IC50 [mol/l] (median)
Sequence of CSNK1A1 (P48729 whole entry): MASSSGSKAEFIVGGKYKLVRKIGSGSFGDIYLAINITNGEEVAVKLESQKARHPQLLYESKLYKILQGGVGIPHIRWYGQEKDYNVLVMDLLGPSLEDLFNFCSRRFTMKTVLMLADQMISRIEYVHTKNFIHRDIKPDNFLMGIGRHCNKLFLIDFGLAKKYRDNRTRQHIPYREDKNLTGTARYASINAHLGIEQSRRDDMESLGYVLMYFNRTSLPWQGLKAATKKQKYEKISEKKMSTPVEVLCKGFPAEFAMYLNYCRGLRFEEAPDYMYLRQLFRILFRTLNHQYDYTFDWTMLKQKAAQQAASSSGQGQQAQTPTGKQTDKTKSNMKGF
Method: CSNK1A1-inhibitory activity of compounds of the present invention in presence of 1 mM adenosine-tri-phosphate (ATP) was quantified employing the CSNK1A1-high-ATP-assay as described in the following paragraphs. In essence, the enzyme activity is measured by quantification of the adenosine-di-phosphate (ADP), which is generated as a co-product of the enzyme reaction, via the “ADP-Glo™ Kinase Assay” kit from the company Promega. This detection system works as follows: In a first step the ATP not consumed in the kinase reaction is quantitatively converted to cAMP employing an adenylate cyclase (“ADP-Glo-reagent”), then the adenylate cyclase is stopped and the ADP generated in the kinase reaction converted to ATP which generates in a luciferase-based reaction a glow-luminescence signal (“Kinase Detection Reagent”).
Recombinant fusion protein of N-terminal Glutathion-S-Transferase (GST) and full-length human CSNK1A1, expressed by baculovirus infected insect cells and purified via Glutathion affinity chromatography, was purchased from Life Technologies (product no. PV4174) and used as enzyme. As substrate for the kinase reaction the biotinylated peptide biotin-Ahx-KRRRAL-pS-VASLPGL (C-terminus in amide form) was used which can be purchased e.g. from the company Biosyntan (Berlin-Buch, Germany).
For the assay 50 nl of a 100 fold concentrated solution of the test compound in DMSO was pipetted into a white low volume 384-well microtiter plate (Greiner Bio-One, Frickenhausen, Germany), 2 μL of a solution of CSNK1A1 in aqueous assay buffer [50 mM HEPES pH 7.5, 10% (v/v) glycerol, 10 mM MgCl2, 50 mM NaCl, 1 mM dithiothreitol, 0.01% (w/v) bovine serum albumin, 0.01% (v/v) Triton X-100] were added and the mixture was incubated for 15 min at 22° C. to allow pre-binding of the test compounds to the enzyme before the start of the kinase reaction. […] The concentration of CSNK1A1 was adjusted depending of the activity of the enzyme lot and was chosen appropriate to have the assay in the linear range, a typical concentration is about 0.4 ng/μL. The reaction was stopped by the addition of 2.5 μL of “ADP-Glo-reagent” (1:1.5 fold diluted with water) and the resulting mixture was incubated at 22° C. for 1 h to convert the ATP not consumed in the kinase reaction completely […]. Subsequently 2.5 μL of the “kinase detection reagent” (1.2 fold more concentrated than recommended by the producer) were added, the resulting mixture was incubated at 22° C. for 1 h and then the luminescence measured with a suitable measurement instrument (e.g. Viewlux™ from Perkin-Elmer). The amount of emitted light was taken as a measure for the amount of ADP generated and thereby for the activity of the CSNK1A1.

Sequence of CSNK1D (P48730 whole entry): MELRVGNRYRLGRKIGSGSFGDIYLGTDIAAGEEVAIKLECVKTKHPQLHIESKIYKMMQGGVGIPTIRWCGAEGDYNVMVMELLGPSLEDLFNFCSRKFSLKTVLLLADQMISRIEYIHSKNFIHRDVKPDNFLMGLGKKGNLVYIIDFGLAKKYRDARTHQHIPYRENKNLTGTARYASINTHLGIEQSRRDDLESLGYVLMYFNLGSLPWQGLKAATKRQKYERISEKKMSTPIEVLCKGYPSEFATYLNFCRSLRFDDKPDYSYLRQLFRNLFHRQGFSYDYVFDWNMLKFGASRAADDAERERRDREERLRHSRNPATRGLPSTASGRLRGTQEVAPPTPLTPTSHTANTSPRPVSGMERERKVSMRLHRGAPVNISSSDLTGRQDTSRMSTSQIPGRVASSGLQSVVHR

Question: Which results are given for `O=C(Cc1ccc(F)cc1)Nc1cc(-c2[nH]c3cccnc3c2-c2ccccc2)ccn1` [Example 14, 2-(4-fluorophenyl)-N-[4-(3-phenyl-1H-pyrrolo[3,2-b]pyridin-2-yl)pyridin-2-yl]acetamide]?
Answer: IC50 (CSNK1D): 2.64 nM; IC50 (CSNK1A1): 45.5 nM

Question: Which results are given for `O=C(Cc1ccc(F)cc1)Nc1cc(-c2[nH]c3cccnc3c2-c2cccc(F)c2)ccn1` [Example 15, 2-(4-fluorophenyl)-N-{4-[3-(3-fluorophenyl)-1H-pyrrolo[3,2-b]pyridin-2-yl]pyridin-2-yl}acetamide]?
Answer: IC50 (CSNK1D): 3.4 nM; IC50 (CSNK1A1): 87.7 nM

Question: Which IC50 (CSNK1D) does the source give for `O=C(Cc1ccc(F)cc1)Nc1cc(-c2[nH]c3cccnc3c2-c2ncccn2)ccn1` [Example 16, 2-(4-fluorophenyl)-N-{4-[3-(pyrimidin-2-yl)-1H-pyrrolo[3,2-b]pyridin-2-yl]pyridin-2-yl}acetamide] here?
Answer: 9.02 nM

Question: And the IC50 (CSNK1A1)?
Answer: 97.9 nM

Question: Which IC50 (CSNK1D) does the source give for `O=C(Cc1ccc(F)cc1)Nc1cc(-c2[nH]c3cccnc3c2-c2ccc(Cl)s2)ccn1` [Example 17, N-{4-[3-(5-chlorothiophen-2-yl)-1H-pyrrolo[3,2-b]pyridin-2-yl]pyridin-2-yl}-2-(4-fluorophenyl)acetamide] here?
Answer: 3.15 nM

Question: And the IC50 (CSNK1A1)?
Answer: 87.3 nM

Question: How did the IC50 (CSNK1D) turn out when `O=C(Cc1ccc(F)cc1)Nc1cc(-c2[nH]c3ccnnc3c2-c2ccccn2)ccn1` [Example 21, 2-(4-fluorophenyl)-N-{4-[7-(pyridin-2-yl)-5H-pyrrolo[3,2-c]pyridazin-6-yl]pyridin-2-yl}acetamide] was run?
Answer: 3.96 nM

Question: And the IC50 (CSNK1A1)?
Answer: 25.1 nM

Question: How did the IC50 (CSNK1D) turn out when `O=C(Cc1ccc(F)cc1)Nc1cc(-c2[nH]c3c(Cl)ccnc3c2-c2ccccn2)ccn1` [Example 22, N-{4-[7-chloro-3-(pyridin-2-yl)-1H-pyrrolo[3,2-b]pyridin-2-yl]pyridin-2-yl}-2-(4-fluorophenyl)acetamide] was run?
Answer: 5.84 nM

Question: And the IC50 (CSNK1A1)?
Answer: 21.8 nM

Question: `O=C(Cc1ccc(F)cc1)Nc1cc(-c2[nH]c3ccc(Cl)nc3c2-c2ccccn2)ccn1` [Example 23, N-{4-[5-chloro-3-(pyridin-2-yl)-1H-pyrrolo[3,2-b]pyridin-2-yl]pyridin-2-yl}-2-(4-fluorophenyl)acetamide] was tested. Which IC50 (CSNK1D) did it give?
Answer: 3.18 nM

Question: What about the IC50 (CSNK1A1) of the same molecule?
Answer: 40.9 nM

Question: For `Cc1cc2[nH]c(-c3ccnc(NC(=O)Cc4ccc(F)cc4)c3)c(-c3ccccn3)c2nc1F` [Example 27, N-{4-[5-fluoro-6-methyl-3-(pyridin-2-yl)-1H-pyrrolo[3,2-b]pyridin-2-yl]pyridin-2-yl}-2-(4-fluorophenyl)acetamide], which IC50 (CSNK1D) is on record?
Answer: 5.11 nM

Question: What about the IC50 (CSNK1A1) of the same molecule?
Answer: 11.2 nM

Question: How did the IC50 (CSNK1D) turn out when `COc1ccnc2c(-c3ccccn3)c(-c3ccnc(NC(=O)Cc4ccc(F)cc4)c3)[nH]c12` [Example 31, 2-(4-fluorophenyl)-N-{4-[7-methoxy-3-(pyridin-2-yl)-1H-pyrrolo[3,2-b]pyridin-2-yl]pyridin-2-yl}acetamide] was run?
Answer: 4.4 nM

Question: And the IC50 (CSNK1A1)?
Answer: 5.63 nM

Question: For `COc1ccc2[nH]c(-c3ccnc(NC(=O)Cc4ccc(F)cc4)c3)c(-c3ccccn3)c2n1` [Example 32, 2-(4-fluorophenyl)-N-{4-[5-methoxy-3-(pyridin-2-yl)-1H-pyrrolo[3,2-b]pyridin-2-yl]pyridin-2-yl}acetamide], which IC50 (CSNK1D) is on record?
Answer: 7.52 nM

Question: What about the IC50 (CSNK1A1) of the same molecule?
Answer: 23.3 nM

Question: Which IC50 (CSNK1D) does the source give for `C=Cc1ccnc2c(-c3ccccn3)c(-c3ccnc(NC(=O)Cc4ccc(F)cc4)c3)[nH]c12` [Example 33, N-{4-[7-ethenyl-3-(pyridin-2-yl)-1H-pyrrolo[3,2-b]pyridin-2-yl]pyridin-2-yl}-2-(4-fluorophenyl)acetamide] here?
Answer: 9.16 nM

Question: And the IC50 (CSNK1A1)?
Answer: 29 nM

Question: For `CCc1ccnc2c(-c3ccccn3)c(-c3ccnc(NC(=O)Cc4ccc(F)cc4)c3)[nH]c12` [Example 34, N-{4-[7-ethyl-3-(pyridin-2-yl)-1H-pyrrolo[3,2-b]pyridin-2-yl]pyridin-2-yl}-2-(4-fluorophenyl)acetamide], which IC50 (CSNK1D) is on record?
Answer: 3.84 nM

Question: What about the IC50 (CSNK1A1) of the same molecule?
Answer: 13.5 nM

Question: With `O=C(Cc1ccc(F)cc1)Nc1cc(-c2[nH]c3c(C4CC4)ccnc3c2-c2ccccn2)ccn1` [Example 35, N-{4-[7-cyclopropyl-3-(pyridin-2-yl)-1H-pyrrolo[3,2-b]pyridin-2-yl]pyridin-2-yl}-2-(4-fluorophenyl)acetamide] as the molecule, how does the IC50 (CSNK1D) read?
Answer: 4.19 nM

Question: And the IC50 (CSNK1A1)?
Answer: 6.39 nM

Question: Which results are given for `COCCc1ccnc2c(-c3ccccn3)c(-c3ccnc(NC(=O)Cc4ccc(F)cc4)c3)[nH]c12` [Example 36, 2-(4-fluorophenyl)-N-{4-[7-(2-methoxyethyl)-3-(pyridin-2-yl)-1H-pyrrolo[3,2-b]pyridin-2-yl]pyridin-2-yl}acetamide]?
Answer: IC50 (CSNK1D): 14.8 nM; IC50 (CSNK1A1): 31.8 nM

Question: Which results are given for `CN1CCN(c2ccnc3c(-c4ccccn4)c(-c4ccnc(NC(=O)Cc5ccc(F)cc5)c4)[nH]c23)CC1` [Example 38, 2-(4-fluorophenyl)-N-{4-[7-(4-methylpiperazin-1-yl)-3-(pyridin-2-yl)-1H-pyrrolo[3,2-b]pyridin-2-yl]pyridin-2-yl}acetamide]?
Answer: IC50 (CSNK1D): 5.59 nM; IC50 (CSNK1A1): 19.8 nM

Question: Which IC50 (CSNK1D) does the source give for `CN1CCC(N(C)c2ccnc3c(-c4ccccn4)c(-c4ccnc(NC(=O)Cc5ccc(F)cc5)c4)[nH]c23)CC1` [Example 39, 2-(4-fluorophenyl)-N-(4-{7-[methyl(1-methylpiperidin-4-yl)amino]-3-(pyridin-2-yl)-1H-pyrrolo[3,2-b]pyridin-2-yl}pyridin-2-yl)acetamide] here?
Answer: 13.6 nM

Question: What about the IC50 (CSNK1A1) of the same molecule?
Answer: 32.9 nM

Question: What does the source list for `O=C(Cc1ccc(F)cc1)Nc1cc(-c2[nH]c3c(N4CCCC4=O)ccnc3c2-c2ccccn2)ccn1` [Example 40, 2-(4-fluorophenyl)-N-{4-[7-(2-oxopyrrolidin-1-yl)-3-(pyridin-2-yl)-1H-pyrrolo[3,2-b]pyridin-2-yl]pyridin-2-yl}acetamide]?
Answer: IC50 (CSNK1D): 10.3 nM; IC50 (CSNK1A1): 30.1 nM

Question: With `Cc1cc(CC(=O)Nc2cc(-c3[nH]c4cccnc4c3-c3ccccn3)ccn2)ccc1F` [Example 41, 2-(4-fluoro-3-methylphenyl)-N-{4-[3-(pyridin-2-yl)-1H-pyrrolo[3,2-b]pyridin-2-yl]pyridin-2-yl}acetamide] as the molecule, how does the IC50 (CSNK1D) read?
Answer: 12.1 nM

Question: What about the IC50 (CSNK1A1) of the same molecule?
Answer: 19 nM

Question: Which IC50 (CSNK1D) does the source give for `O=C(Cc1ccc(Cl)cc1)Nc1cc(-c2[nH]c3cccnc3c2-c2ccccn2)ccn1` [Example 42, 2-(4-chlorophenyl)-N-{4-[3-(pyridin-2-yl)-1H-pyrrolo[3,2-b]pyridin-2-yl]pyridin-2-yl}acetamide] here?
Answer: 3.33 nM

Question: And the IC50 (CSNK1A1)?
Answer: 7.14 nM

Question: What does the source list for `O=C(Cc1ccccc1)Nc1cc(-c2[nH]c3cccnc3c2-c2ccccn2)ccn1` [Example 46, 2-phenyl-N-(4-(3-(pyridin-2-yl)-1H-pyrrolo[3,2-b]pyridin-2-yl)pyridin-2-yl)acetamide]?
Answer: IC50 (CSNK1D): 5.77 nM; IC50 (CSNK1A1): 14.6 nM
